2 compounds from patent US20060258739A1, “Dihydrobenzofuran derivatives and uses therof” (Wyeth, priority 2005, published 2006) can be followed below.

The assay deals with T1, human 5-hydroxytryptamine-2C (h5-HT2C) receptor (Homo sapiens, UniProt P28335).
T1 construct: expressed in transfected cells; host or cells: CHO (Chinese Hamster Ovary) cells; membrane preparation
T1 sequence (P28335 33-458): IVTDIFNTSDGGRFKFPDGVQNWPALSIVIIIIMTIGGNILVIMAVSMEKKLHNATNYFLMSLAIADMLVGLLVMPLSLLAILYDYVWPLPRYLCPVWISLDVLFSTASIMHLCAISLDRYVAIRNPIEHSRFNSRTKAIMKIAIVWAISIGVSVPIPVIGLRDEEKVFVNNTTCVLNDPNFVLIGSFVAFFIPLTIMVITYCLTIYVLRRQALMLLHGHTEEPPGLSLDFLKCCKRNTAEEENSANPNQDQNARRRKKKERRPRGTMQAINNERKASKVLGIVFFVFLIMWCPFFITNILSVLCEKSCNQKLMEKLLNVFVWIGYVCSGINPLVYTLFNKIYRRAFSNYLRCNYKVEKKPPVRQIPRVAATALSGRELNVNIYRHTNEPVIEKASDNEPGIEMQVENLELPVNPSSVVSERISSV
Briefly: [125I]DOI radioligand binding to membranes of CHO cells expressing the h5-HT2C receptor.

What is called Ki is a dissociation constant, usually derived from enzyme kinetics or from competition with a known ligand. By Kd is commonly meant a measure of binding affinity in units of concentration.

Turning to `CSc1ccc2c(c1)C(N1CCN(C)CC1)Cc1ccccc1S2` (centres unmarked) [Methiothepin], for the setting “displacement of [125I]DOI, CHO cell membranes, room temperature 60 min, read-out: Ki (95% confidence interval)”, the Ki came to 4.6 nM.
In the case of `COc1cc(CC(C)N)c(OC)cc1I` (centres unmarked) [[^125I] DOI], the Kd (read-out: dissociation constant, KD of [125I] DOI, saturation binding with increasing concentrations of [125I]DOI) is 0.4 nM.
